One assay addresses T1, BAKΔTM (Homo sapiens, UniProt Q16611).
T1 construct: BAKΔTM (GenBank BC004431, residues 1–186); His6; made in house; host or cells: E. coli BL21
T1 sequence (Q16611 1-186): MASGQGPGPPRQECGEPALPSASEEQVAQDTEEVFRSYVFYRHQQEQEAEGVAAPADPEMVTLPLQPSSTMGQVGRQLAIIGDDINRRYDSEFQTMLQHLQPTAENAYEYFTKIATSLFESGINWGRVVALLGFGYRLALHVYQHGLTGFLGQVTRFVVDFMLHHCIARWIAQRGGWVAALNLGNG
Nature of the assay: SPR binding of BH3 peptides to immobilized BAKΔTM. Conditions: for pKd: BAKΔTM immobilized on CM5 chip, steady-state analysis, three independent SPR assays, top concentrations not threefold above KD, read-out: Approximate dissociation constant ranges, KDs for BAK. A general note: Surface plasmon resonance follows binding to a sensor surface in real time, without labels.

In another assay the test system is BAKΔTM F161A. Nature of the assay: Liposome permeabilization assay with BAKΔTM F161A. Format: biochemical, human. Conditions: 50 nM BAKΔTM F161A vs WT, 50 nM BH3 peptide, three independent experiments. The procedure:
(§1) 1-Palmitoyl-2-oleoyl-sn-glycero-3-phosphocholine, 1-plamitoyl-2-oleoyl-sn-glycero-3-phosphoethanolamine, L-α-phosphatidyl-inositol, cardiolipin, cholesterol and 18:1 DGS-NTA(Ni) were mixed at a weight ratio of 36:22:9:8:20:5, and dried as thin films in glass test tubes under nitrogen for 16 h. To encapsulate FITC-labeled dextran 10 (F-d10), 50 mg F-d10 was added to 50 mg lipid in 1 ml of 150 KCl buffer containing 20 mM HEPES (pH 7.0), sonicated and extruded 15 times through a 400 nm polycarbonate membrane. Liposomes with F-d10 were further purified by gel filtration on Sephacryl S-300 HR (GE Healthcare). Phosphate was determined by colorimetric assay (Abcam, Cambridge, UK).
(§2) Release of F-d10 from large unilamellar vesicles (LUVs) was monitored by fluorescence dequenching[25] using a fluorimetric plate reader (Thermo Scientific) with SoftMax Pro software. After addition of purified His6-BAKΔTM and/or the BH3 peptides to LUVs (final lipid concentration 10 µg ml^−1), 96 well plates were incubated at 37 °C and recorded (excitation 485 nm, emission 538 nm) every 10 sec. FITC-labeled dextran release was calculated using the equation ((Fsample − Fblank)/(FTriton − Fblank) × 100%), where Fsample, Fblank, and FTriton are the fluorescence recorded for the reagent-, buffer-, and 1% Triton-treated LUVs, respectively.

The test system of the next assay is BAK (His6-BAKΔTM). The assay can be described thus: Liposome permeabilization assay (FITC-dextran release) with BAK. It is filed as biochemical, human. Conditions: 50 nM BAK + 50 nM BH3 peptide. The protocol:
as §1, §2

The next assay deals with human BAKΔTM. Nature of the assay: Cytochrome c release from mitochondria of Bak−/−Bax−/− MEFs plus purified human BAKΔTM. It is filed as biochemical. Conditions: 2 μM His6-BAKΔTM, 5 μM BH3 peptide, 25 °C, 90 min, immunoblotting. The protocol:
(§3) Mitochondria[43] purified from Bax^−/− MEFs were incubated with the indicated concentrations of navitoclax, S63845 or BH3 peptides at 25 °C for 90 min. After centrifugation (10,000 g, 15 min) and washing, supernatants and pellets were analyzed by immunoblotting. Alternatively, His6-BAKΔTM was dialyzed against mitochondria (mito) buffer (150 mM KCl, 5 mM MgCl2, 1 mM EGTA, 25 mM HEPES, pH 7.5) and diluted into mito buffer with 5 mM DTT. Mitochondria purified from Bak^−/−Bax^−/− MEFs were then incubated with 2 μM His6-BAKΔTM and the indicated BH3 peptides (5 μM) at 25 °C for 90 min. After centrifugation (10,000 × g, 15 min) and washing, supernatants and pellets were analyzed by immunoblotting.

For a further assay, the system named is BAK H164A/H165A. To be noted: SPR, ~4000 RU immobilized, series of peptide concentrations, three independent experiments. The text has this: (§4) Plasmids encoding BAKΔTM (GenBank BC004431, residues 1–186) in pET29b(+) was kindly provided by Qian Liu and Kalle Gehring (McGill University, Montreal, Canada)[34]. Plasmids encoding BAK 15–186 and the corresponding BAK mutants were generated using site-directed mutagenesis. All plasmids were subjected to automated sequencing to verify the described alterations and confirm that no additional mutations were present.
(§5) Proteins for SPR were further purified by FPLC on Superdex S200, concentrated in a centrifugal concentrator (Centricon, Millipore), dialyzed against Biacore buffer (10 mM 4-(2-hydroxyethyl)-1-piperazineethanesulfonic acid (HEPES; pH 7.4), 150 mM NaCl, 0.05 mM ethylenediaminetetraacetic acid (EDTA) and 0.005% (w/v) polysorbate 20) and stored at 4 °C for <48 h before use.
(§6) BAKΔTM or mutants were immobilized on a CM5 chip using a Biacore T200 biosensor with a blank channel as a negative control. Binding assays were performed at 25 °C using Biacore buffer containing the indicated BH3 peptides injected at 30 µl per min for 1 min using a Biacore T200 Control Software. Proteins were allowed to dissociate during perfusion with Biacore buffer at 30 µl per min for 10 min and then desorbed with 2 M MgCl2. All binding affinities were derived by Biacore T200 Evaluation Software using Steady State analysis (Biacore, Uppsala, Sweden).

In another assay the test system is BAK F93E. To be noted: SPR, about 4000 RU immobilized, series of peptide concentrations, three independent experiments.
Text: as §4, §5, §6

The subject of the next assay is BAK G126S. Conditions: SPR, about 4000 RU immobilized, series of peptide concentrations, three independent experiments.
Text: as §4, §5, §6

A further assay has as its system BAK F161A. Conditions: SPR, ~4000 RU immobilized, series of peptide concentrations, three independent experiments.
Text: as §4, §5, §6

Assay [1] has as its system Bak in mitochondria from Bax−/− MEFs. Nature of the assay: Cytochrome c release from mitochondria of Bax−/− MEFs. Format: biochemical, mouse. The protocol:
as §3

Setting [2] is: 90 min at 25 °C, immunoblotting of supernatants and pellets.

pKd: −log10 of the molar value. Several values for one entry are separate records, joined by “and”; a condition that tells them apart may be missing. Identical values can stand only once. Entries after “also recorded” stand apart in the source; their conditions may differ. Residues, ends and D or L forms follow the SMILES beside them.

Take `CC[C@H](C)[C@H](NC(=O)[C@H](CCC(=O)O)NC(=O)[C@H](CCCNC(=N)N)NC(=O)[C@H](C)NC(=O)[C@H](Cc1c[nH]c2ccccc12)NC(=O)[C@@H](N)CCC(N)=O)C(=O)NCC(=O)N[C@@H](C)C(=O)N[C@@H](CCC(N)=O)C(=O)N[C@@H](CC(C)C)C(=O)N[C@@H](CCCNC(=N)N)C(=O)N[C@@H](CCCNC(=N)N)C(=O)N[C@@H](CCSC)C(=O)N[C@@H](C)C(=O)N[C@@H](CC(=O)O)C(=O)N[C@@H](CC(=O)O)C(=O)N[C@@H](CC(C)C)C(=O)N[C@@H](CC(N)=O)C(=O)N[C@@H](C)C(=O)N[C@@H](CCC(N)=O)C(=O)N[C@@H](Cc1ccc(O)cc1)C(=O)N[C@@H](CCC(=O)O)C(=O)N[C@@H](CCCNC(=N)N)C(=O)N[C@@H](CCCNC(=N)N)C(=O)N[C@@H](CCCNC(=N)N)C(=O)N[C@@H](CCC(N)=O)C(=O)O` [PUMA BH3, reference compound]: the pKd on BAKΔTM (SPR, 25 °C) is 5.55 to 5.70. Further, the “Effect of F161A mutation on BAK-mediated liposome permeabilization initiated by the peptide” value in the assay with BAKΔTM F161A is on record as “did not affect”.
On to `CC[C@H](C)[C@H](NC(=O)[C@H](CS)NC(=O)[C@H](CCC(N)=O)NC(=O)[C@H](CC(C)C)NC(=O)[C@H](CCCCN)NC(=O)[C@H](CCCNC(=N)N)NC(=O)[C@H](C)NC(=O)[C@@H](NC(=O)[C@H](CCC(N)=O)NC(=O)[C@@H](NC(=O)[C@H](CCC(=O)O)NC(=O)[C@H](C)NC(=O)[C@@H](N)CCC(N)=O)C(C)C)[C@@H](C)CC)C(=O)N[C@@H](C)C(=O)N[C@@H](CC(=O)O)C(=O)N[C@@H](CCC(N)=O)C(=O)N[C@@H](Cc1ccccc1)C(=O)N[C@@H](Cc1c[nH]cn1)C(=O)N[C@@H](CCCNC(=N)N)C(=O)N[C@@H](CC(C)C)C(=O)N[C@@H](Cc1c[nH]cn1)C(=O)N[C@H](C(=O)N[C@@H](CCC(N)=O)C(=O)N[C@@H](CCC(N)=O)C(=O)N[C@@H](Cc1c[nH]cn1)C(=O)N[C@@H](CCC(N)=O)C(=O)O)C(C)C` [BMF BH3] (H-QAEVQIARKLQCIADQFHRLHVQQHQ-OH; N-terminus and C-terminus assumed), for which, in the assay with BAK (His6-BAKΔTM) (37 °C, fluorescence dequenching, BAK alone 28%, mean of three independent experiments), the “BAK-dependent release of liposome contents (FITC-dextran release)” value was determined as 46%. In addition, the “Cytochrome c release, in words” value in the assay with human BAKΔTM was “intermediate amount”. Besides, at BAKΔTM (SPR, 25 °C), the pKd is 6.22 to 6.40 and > 6.00. The “Association and dissociation, direct comparison of SPR curves” value on BAKΔTM (peptides at 1600 nM, immobilized BAKΔTM) is “fastest association with BAKΔTM and slowest dissociation”. Besides, in the assay with BAK H164A/H165A, the “Effect of BAK H164A/H165A mutation on peptide binding (maximum RU) vs WT BAKΔTM” value is “diminished binding”. The “Effect of BAK F93E mutation on peptide binding (maximum RU) vs WT BAKΔTM” value in the assay with BAK F93E is listed as “did not appreciably affect binding”. Moreover, in the assay with BAK G126S, the “Effect of BAK G126S mutation on peptide binding (maximum RU) vs WT BAKΔTM” value is recorded as “did not appreciably affect binding”. Further, the “Effect of BAK F161A mutation on peptide binding (maximum RU) vs WT BAKΔTM” value with BAK F161A is recorded as “diminished binding”. In addition, the “Effect of F161A mutation on BAK-mediated liposome permeabilization initiated by the peptide” value in the assay with BAKΔTM F161A is given as “markedly decreased”.
For `Cc1c(-c2c(-c3ccc(F)o3)sc3ncnc(O[C@H](Cc4ccccc4OCc4ccnn4CC(F)(F)F)C(=O)O)c23)ccc(OCCN2CCN(C)CC2)c1Cl` [S63845], the “Cytochrome c release, in words” value in [1] (setting [2]) was “failed to induce cytochrome c release”.
Regarding `CC[C@H](C)[C@H](NC(=O)[C@H](CS)NC(=O)[C@H](C)NC(=O)[C@H](CC(C)C)NC(=O)[C@H](CCCNC(=N)N)NC(=O)[C@H](CC(C)C)NC(=O)[C@H](C)NC(=O)[C@H](CC(C)C)NC(=O)[C@H](C)NC(=O)[C@H](CC(=O)O)NC(=O)[C@H](CO)NC(=O)CNC(=O)[C@@H](N)CCC(=O)O)C(=O)NCC(=O)N[C@@H](CC(=O)O)C(=O)N[C@@H](CCC(=O)O)C(=O)N[C@@H](CCSC)C(=O)N[C@@H](CC(=O)O)C(=O)N[C@H](C(=O)N[C@@H](CO)C(=O)N[C@@H](CC(C)C)C(=O)N[C@@H](CCCNC(=N)N)C(=O)N[C@@H](C)C(=O)N1CCC[C@H]1C(=O)N[C@@H](CCCNC(=N)N)C(=O)O)C(C)C` [BIK BH3] (H-EGSDALALRLACIGDEMDVSLRAPR-OH; N-terminus and C-terminus assumed), the “Increase of BAK-mediated liposome release, in words” value in the assay on BAK (His6-BAKΔTM) was “did not appreciably increase”. In addition, the “Concentration that induced cytochrome c release” value in [1] (90 min at 25 °C, immunoblotting of supernatants and pellets, 10 μM highest concentration tested) was determined as 10 µM. For the same molecule, the “Fold less active than the HRK BH3 peptide in cytochrome c release” value in [1] (MCL1 inhibitor S63845 added together with peptide, response to reviewers) is reported as “about 10 fold”. Moreover, the “Cytochrome c release, in words” value in the assay on human BAKΔTM is reported as “barely induced cytochrome c release”. The pKd at BAKΔTM (SPR, 25 °C) is under 5.00. Also, the “Binding to BAKΔTM by SPR, in words” value on BAKΔTM (SPR, immobilized BAKΔTM, 25 °C) is listed as “did not detect interactions; also recorded: undetectable”.
Regarding `CC1(C)CCC(c2ccc(Cl)cc2)=C(CN2CCN(c3ccc(C(=O)NS(=O)(=O)c4ccc(N[C@H](CCN5CCOCC5)CSc5ccccc5)c(S(=O)(=O)C(F)(F)F)c4)cc3)CC2)C1` [navitoclax], the “Cytochrome c release, in words” value in [1] (setting [2]) is on record as “failed to induce cytochrome c release”. The “Effect on BIK or HRK BH3-induced cytochrome c release” value in [1] (navitoclax applied along with BIK BH3 or HRK BH3) was “did not enhance”.

Values taken from article PMC7335050, “Characterization of an alternative BAK-binding site for BH3 peptides” (Nature Communications, 2020).
